Assay [1] deals with Imidazoline I2 (Peripheral) Receptor. The assay can be described thus: Radioligand binding, [3H] Idazoxan, kidney. Also on record: species or system Wistar rat. The settings on record: compound at 10 μM. The procedure:
(§1) Compounds of the invention were subjected to specific binding assays to test their ability to bind to the receptors and transporter proteins described below.
(I) Imidazoline I2 (Peripheral) Receptor:
• Reference: Brown et al., Brit. J. Pharmacol., 99:803-809, (1990) • Source: Wistar rat kidney • Ligand: 5 nM [^3H]

Another assay concerns the target T1, Sigma σ2 Receptor (Rattus norvegicus, UniProt Q5U3Y7).
T1 construct: Source: Wistar rat brain; from tissue; host or cells: Wistar rat brain
T1 sequence (Q5U3Y7 1-176): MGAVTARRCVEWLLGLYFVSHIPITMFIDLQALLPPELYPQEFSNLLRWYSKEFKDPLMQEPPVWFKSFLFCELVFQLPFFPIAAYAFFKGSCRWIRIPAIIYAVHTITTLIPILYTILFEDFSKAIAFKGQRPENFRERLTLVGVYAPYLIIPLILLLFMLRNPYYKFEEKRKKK
Nature of the assay: Radioligand binding, [3H] Ifenprodil, brain. Also on record: species or system Wistar rat. To be noted: compound at 10 μM. On the procedure:
as §1
• Reference: Hashimoto et al., Eur. J. Pharmacol., 236:159-163, (1993) • Source: Wistar rat brain • Ligand: 3 nM [3H] Ifenprodil • Vehicle: 1% DMSO • Incubation time/Temp: 60 minutes @ 37° C. • Incubation buffer: 50 mM Tris-HCl, pH 7.4 • Non Specific ligand: 10 μM Ifenprodil • Kd: 4.8 nM • Bmax: 1.3 pmole/mg protein • Specific binding: 85% • Quantitation method: Radioligand binding • Significance criteria: ≧50% of maximum stimulation or inhibition

In a further assay the test system is dopamine receptors. Nature of the assay: Receptor binding studies, overall statement on dopamine receptors. Also on record: species or system Human. The settings on record: conclusion from % inhibition at 10 μM. On the procedure: (d) Dopamine D1 Receptor:
• Reference: Dearry et al., Nature, 347:72-76, (1990) • Source: Human recombinant CHO cells • Ligand: 1.4 nM [3H] SCH-23390 • Vehicle: 1% DMSO • Incubation time/Temp: 2 hours @ 37° C. • Incubation buffer: 50 mM Tris-HCl, pH 7.4, 150 mM NaCl, 1.4 mM ascorbic acid, 0.001% BSA • Non Specific ligand: 10 μM (+)-butaclamol • Kd: 1.4 nM • Bmax: 0.63 pmole/mg protein • Specific binding: 90% • Quantitation method: Radioligand binding • Significance criteria: ≧50% of maximum stimulation or inhibition
(e) Dopamine D2L Receptor:
• Reference: Grandy et al., Proc. Natl. Acad. Sci. USA, 86:9762-9766 (1989) • Source: Human recombinant CHO cells • Ligand: 0.16 nM [^3H]
(f) Dopamine D2S Receptor:
(g) Dopamine D3 Receptor:
• Reference: Sokoloff et al., Nature, 347:146-151, (1990) • Source: Human recombinant CHO cells • Ligand: 0.7 nM [3H]
(h) Dopamine D4.2 Receptor:
• Reference: Van Tol et al., Nature, 350:610-614 (1991) • Source: Human recombinant CHO-K1 cells • Ligand: 0.5 nM [^3H]
(i) Dopamine D4.4 Receptor:
• Reference: Van Tol et al., Nature, 350:610-614 (1991) • Source: Human recombinant CHO-K1 cells • Ligand: 1.2 nM [^3H]
(j) Dopamine D4.7 Receptor:
• Reference: Van Tol et al., Nature, 350:610-614 (1991) • Source: Human recombinant CHO-K1 cells • Ligand: 1.5 nM [^3H]

With `COc1cc2c(cc1O)[C@@H]1C[C@@H](O)[C@H](CC(C)C)CN1CC2` (single isomer, unassigned) [(+)-10-desmethyl-γ-dihydrotetrabenazine], the “% inhibition, (l) I2 Receptor (peripheral)” value in assay [1] came out at 24%. Moreover, the inhibition (usually the drop in the measured response relative to a control, in per cent) at 10 µM on Sigma σ2 Receptor (read-out: % inhibition, (n) σ2 Receptor) stood at 31%.

With `COc1cc2c(cc1O)[C@@H]1C[C@@H](O)[C@H](CC(C)C)CN1CC2` (single isomer, unassigned) [(−)-10-desmethyl-γ-dihydrotetrabenazine], the “inhibition of dopamine receptors (result in words)” value in the assay on dopamine receptors is recorded as “potent inhibitor of dopamine receptors”. Also, the “% inhibition, (l) I2 Receptor (peripheral)” value in assay [1] is given as 25%. For the same compound, at Sigma σ2 Receptor (10 µM), the “% inhibition, (n) σ2 Receptor” value is reported as 32%.

These data come from patent publication US20100087475A1, “PHARMACEUTICAL COMPOUNDS” (Biovali Laboratories International (Barbados) S.R.L., priority 2008, published 2010).
